Tested on: 3′-O-azidomethyl group on DNA model
Assay: Deprotection of 3′-O-azidomethyl group by TCEP, monitored by extension reaction
Details: 0.2 μM DNA model
Protocol: Deprotection step (FIG. 26a) was studied on DNA model bearing 3′-O-azidomethyl group that is introduced to DNA by incorporation of 3′-O-azidomethyl-dNTPs by Therminator IX DNA polymerase. Deprotection was carried out by tris(carboxyethyl)phosphine (TCEP) and monitored by extension reaction when mixture of all natural dNTPs is added to the solution of the purified deprotected DNA.
• 1. 2 μl of 10× Thermopol® buffer (20 mM Tris-HCl, 10 mM (NH4)2SO4, 10 mM KCl, 2 mM MgSO4, 0.1% Triton® X-100, pH 8.8, New England BioLabs) was mixed with 12.25 μl of sterile deionized water (ELGA VEOLIA) in 1.5 ml Eppendorf tube. • 2. 1 μl of 10 μM primer (10 pmol, 1 equiv) (SEQ ID NO: 39, FIG. 26i) and 1.5 μl of either 10 μM template-A/G/T/C (15 pmol, 1.5 equiv) (SEQ ID NOS: 40 to 43, FIG. 26i) were added to the reaction mixture. • 3. 3′-O-modified-dTTP/dCTP/dATP/dGTP (2 μl of 100 μM) and MnCl2 (1 μl of 40 mM) were added. • 4. 1.5 μl of Therminator IX DNA polymerase (15 U, New England BioLabs) was then added. • 5. The reaction was incubated for 5 minutes at 37° C. • 6. 4 μL of the sample was taken out and mixed with 0.5 ul of 5 mM dNTP mix and allowed to react for 10 minutes for control reaction. • 7. 40 μL of the 500 mM TCEP in 1M TRIS buffer pH 7.4 was added to the reaction mixture and allowed to react for 10 minutes at 37° C. • 8. […]

Compound: O=C(O)CCP(CCC(=O)O)CCC(=O)O [TCEP, tris(carboxyethyl)phosphine]
- cleavage of 3′-O-azidomethyl group with high efficiency (50 mM TCEP): not sufficient
- efficiency of cleavage of 3′-O-azidomethyl group (300 mM TCEP): 95%

From patent US20220396818A1, “POLYNUCLEOTIDE SYNTHESIS METHOD, KIT AND SYSTEM” (Oxford Nanopore Technologies PLC, priority 2019, published 2022)
